We go through 54 molecules from patent publication US11292787B2, “Five-membered-fused-six-membered aza-aromatic ring compound, preparation method thereof, pharmaceutical composition and application thereof” (XIAMEN UNIVERSITY, priority 2017, dated 2022).

In the assay the target is T1, K-Ras protein (Homo sapiens, UniProt P01116, G12V).
T1 construct: in SW620 cells, compound I-a-1 can effectively enhance the degradation of endogenous K-RAS-G12V proteins; endogenous in cells; host or cells: SW-620
T1 sequence (P01116 1-188 isoform P01116-2 G12V): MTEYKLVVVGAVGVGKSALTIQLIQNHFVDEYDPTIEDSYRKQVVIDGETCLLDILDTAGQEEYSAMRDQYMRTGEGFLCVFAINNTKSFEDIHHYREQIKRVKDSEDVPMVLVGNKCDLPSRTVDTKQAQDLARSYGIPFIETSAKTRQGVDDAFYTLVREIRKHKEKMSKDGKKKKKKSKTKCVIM
In words: K-Ras protein degradation rate by Western blot in SW-620 cells. Type of assay: cell-based. Conditions: 10 μM, SW-620 cells, 24 h, Western blot, relative to DMSO control; read-out: Degradation rate of compounds at 10 μM on Ras protein (%). As for the experimental part: Inhibitory activity of compounds on K-RAS was evaluated by the degradation rate of protein level of administration group relative to control group (Cell Rep 2014, 7, 871-882).
The specific method was as follows:
1. Cell plating: SW-620 cells in logarithmic growth phase were inoculated into a 24-well plate at 2×10^4/well, and cultured in a 37° C., 5% CO2 incubator.
2. Administering drug to cells: after 24 h of culture, various drug stocks […]; the original solution in the 24-well plate was discarded, to which was added the obtained drug solution, with the DMSO group as the blank control; after the drug solution was added, the 24-well plate was transferred to the 37° C. CO2 incubator to continue the culture.
3. Detection of K-Ras protein level: after 24 h of administration and culture, the liquid in the well was discarded, the cells were routinely collected, and rinsed twice with 1×PBS, a cell lysate was added to extract the total cellular protein, and the protein concentration was determined by BCA method. 30 μg of the protein sample was taken for SDS-polyacrylamide gel electrophoretic transmembrane, the membrane was blocked sequentially, incubated with K-Ras antibody (1:1000) and internal reference antibody β-actin (1:2000) respectively overnight at 4° C., rinsed with TBST for 5 min×3 times, then incubated with the addition of the corresponding horseradish peroxidase-labeled secondary antibody (1:5000) for 1-2 h, and rinsed with TBST for 5 min×3 times. Finally, chemiluminescence image was acquired using Image Lab software.
4. Calculation of single-point K-Ras protein degradation rate: quantitative and calibration analysis of K-Ras and β-actin were conducted using Image-Lab software, and then the intracellular K-Ras degradation rate was calculated according to the following formula: single-point K-Ras protein degradation rate (%)=(control group−administration group)/control group×100%. The drug with degradation rate ≥20% was selected for soft agar experiment.

With `O=C(NC1CCCCC1)c1c[nH]c(-c2cnc3cnccn23)c1` [VII-b-3], the percent K-Ras protein degradation (single point) at 10 µM is 10%.
In the case of `Cc1ccc(CNC(=O)c2c[nH]c(-c3n[nH]c4ncccc34)c2)cc1` [III-f-52] it was 35%; in that of `O=C(NCc1c(F)cccc1Cl)c1cccc(-c2cnc3ccccn23)c1` [IX-d-1], 30%.
In the case of `O=C(NC1CCCCC1)c1c[nH]c(-c2n[nH]c3ncccc23)c1` [III-f-27] it was 14%; in that of `O=C(Nc1c(F)cccc1Cl)c1ccc(-c2n[nH]c3ncccc23)cc1` [III-d-3], 27%; in that of `O=C(NCc1c(F)cccc1Cl)c1ccc(-c2nnc3ccccn23)cc1` [X-e-1], 10%.
For the molecule `O=C(NCc1cc(C(F)(F)F)ccc1F)c1c[nH]c(-c2n[nH]c3ncccc23)c1` [III-f-62], the percent K-Ras protein degradation (single point) at 10 µM was found to be 70%.
In the case of `Cc1ccc(NC(=O)c2c[nH]c(-c3n[nH]c4ncccc34)c2)cc1` [III-f-16] it was 15%.
The figure for `O=C(NCc1ccc(Cl)c(Cl)c1)c1c[nH]c(-c2n[nH]c3ncccc23)c1` [III-f-4] is 19%; for `O=C(NCc1c(F)cccc1Cl)c1ccc(-c2cnc3ccccn23)s1` [IX-f-1] it is 50%.
The figure for `O=C(NCc1c(F)cccc1Cl)c1c[nH]c(-c2n[nH]c3ncccc23)c1` [III-f-1] is 60%.
Regarding `O=S(=O)(Cc1c(Cl)cccc1Cl)c1c[nH]c(-c2n[nH]c3ncccc23)c1` [III-h-3], the percent K-Ras protein degradation (single point) at 10 µM was 18%.
In the case of `O=C(Nc1ccccc1)c1csc(-c2n[nH]c3ccccc23)c1` [I-a-11] it was 30%; in that of `O=C(NCc1c(F)cccc1F)c1c[nH]c(-c2n[nH]c3ncccc23)c1` [III-f-3], 6%.
In the case of `N#Cc1cccc(CNC(=O)c2c[nH]c(-c3n[nH]c4ncccc34)c2)c1` [III-f-32] it was 60%; in that of `O=C(NCc1ccccn1)c1c[nH]c(-c2n[nH]c3ncccc23)c1` [III-f-37], 35%.
Turning to `O=C(NCc1ccc(C(F)(F)F)cc1)c1c[nH]c(-c2n[nH]c3ncccc23)c1` [III-f-34], the percent K-Ras protein degradation (single point) at 10 µM was 60%.
Regarding `O=C(Nc1ccc(OC(F)(F)F)cc1)c1c[nH]c(-c2n[nH]c3ncccc23)c1` [III-f-18], the percent K-Ras protein degradation (single point) at 10 µM was 15%.
In the case of `COc1ccccc1CNC(=O)c1c[nH]c(-c2n[nH]c3ncccc23)c1` [III-f-54] it was 50%.
In the case of `O=C(Nc1ccccc1)c1csc(-c2c[nH]c3ccccc23)c1` [IV-a-2] it was 50%; in that of `O=C(NCc1ccc(Cl)cc1)c1c[nH]c(-c2n[nH]c3ncccc23)c1` [III-f-6], 15%; in that of `O=C(Nc1cccc(C(F)(F)F)c1)c1c[nH]c(-c2n[nH]c3ncccc23)c1` [III-f-11], 13%.
The figure for `O=C(NCc1ccccc1Br)c1c[nH]c(-c2n[nH]c3ncccc23)c1` [III-f-42] is 70%.
Regarding `CC(C)Oc1ccc(NC(=O)c2c[nH]c(-c3n[nH]c4ncccc34)c2)cc1` [III-f-15], the percent K-Ras protein degradation (single point) at 10 µM was 14%.
The figure for `O=C(NCc1cc(F)ccc1F)c1c[nH]c(-c2n[nH]c3ncccc23)c1` [III-f-56] is 70%; for `O=C(Nc1ccccc1)c1c[nH]c(-c2cnc3cnccn23)c1` [VII-b-2] it is 20%; for `O=C(NCc1c(F)cccc1Cl)c1c[nH]c(-c2cnc3cnccn23)c1` [VII-b-1] it is 20%.
In the case of `O=C(NCc1c(F)cccc1Cl)c1ccc(-c2c[nH]c3ccccc23)cc1` [IV-e-1] it was 30%.
In the case of `O=C(Nc1ccccc1)c1c[nH]c(-c2n[nH]c3ccccc23)c1` [I-b-2] it was 56%; in that of `O=C(NCc1c(F)cccc1Cl)c1coc(-c2c[nH]c3ccccc23)c1` [IV-c-1], 30%.
On to `O=C(NCc1cc(C(F)(F)F)ccc1F)c1csc(-c2cnc3cccnn23)c1` [VIII-a-3], for which the percent K-Ras protein degradation (single point) at 10 µM stood at 50%.
With `O=C(NCc1cc(C(F)(F)F)cc(C(F)(F)F)c1)c1c[nH]c(-c2n[nH]c3ncccc23)c1` [III-f-59], the percent K-Ras protein degradation (single point) at 10 µM came out at 60%.
The figure for `O=C(Nc1ccccc1)c1ccc(-c2n[nH]c3ccccc23)cc1` [I-e-2] is 12%; for `O=C(NCc1c(F)cccc1Cl)c1coc(-c2n[nH]c3ccccc23)c1` [I-c-1] it is 11%; for `O=C(NCc1c(F)cccc1Cl)c1csc(-c2cnc3cnccn23)c1` [VII-a-1] it is 5%.
The figure for `Cc1ccccc1CNC(=O)c1c[nH]c(-c2n[nH]c3ncccc23)c1` [III-f-51] is 70%; for `O=C(NCc1c(F)cccc1Cl)c1coc(-c2nnc3ccccn23)c1` [X-c-1] it is 10%; for `O=C(NCc1cccc(OC(F)(F)F)c1)c1c[nH]c(-c2n[nH]c3ncccc23)c1` [III-f-38] it is 50%.
In the case of `O=C(NCc1cccc(C(F)(F)F)c1)c1csc(-c2cnc3cccnn23)c1` [VIII-a-2] it was 60%; in that of `O=C(NCc1c(F)cccc1Cl)c1ccc(-c2n[nH]c3ccccc23)[nH]1` [I-g-1], 30%; in that of `O=S(=O)(NCc1c(F)cccc1Cl)c1c[nH]c(-c2n[nH]c3ncccc23)c1` [III-g-4], 12%.
As for `Nc1cccc(CNC(=O)c2c[nH]c(-c3n[nH]c4ncccc34)c2)c1` [III-f-49], the percent K-Ras protein degradation (single point) at 10 µM is 50%.
The figure for `O=C(NCc1c(F)cccc1Cl)c1ccc(-c2c[nH]c3ncccc23)s1` [II-e-1] is 15%; for `O=C(Nc1ccccc1)c1ccc(-c2cnc3cnccn23)s1` [VII-f-2] it is 30%; for `O=C(Nc1ccccc1)c1ccc(-c2cnc3cnccn23)cc1` [VII-e-2] it is 20%.
The figure for `O=C(NC1CCCCC1)c1ccc(-c2cnc3cnccn23)cc1` [VII-e-3] is 30%; for `O=C(NCc1cccc(F)c1)c1c[nH]c(-c2n[nH]c3ncccc23)c1` [III-f-44] it is 70%.
In the case of `O=C(NC1CCCCC1)c1ccc(-c2cnc3cnccn23)s1` [VII-f-3] it was 20%; in that of `O=C(NCc1c(F)cccc1Cl)c1ccc(-c2n[nH]c3ncccc23)s1` [III-e-1], 40%; in that of `O=C(Nc1ccccc1)c1csc(-c2n[nH]c3ncccc23)c1` [III-a-2], 9%.
In the case of `O=C(NCc1ccc(Br)cc1)c1c[nH]c(-c2n[nH]c3ncccc23)c1` [III-f-43], the percent K-Ras protein degradation (single point) at 10 µM came to 40%.
The figure for `COc1ccc(NC(=O)c2c[nH]c(-c3n[nH]c4ncccc34)c2)cc1` [III-f-17] is 19%; for `O=C(NCc1cccc(C(F)(F)F)c1)c1csc(-c2n[nH]c3ncccc23)c1` [III-a-3] it is 60%.
Take `O=C(NCc1c(F)cccc1Cl)c1ccc(-c2cnc3cnccn23)cc1` [VII-e-1]: the percent K-Ras protein degradation (single point) at 10 µM turned out to be 30%.
